According to paper PMC9311798, “A Novel Class of Potent Anti-Tyrosinase Compounds with Antioxidant Activity, 2-(Substituted phenyl)-5-(trifluoromethyl)benzo[d]thiazoles: In Vitro and In Silico Insights” (Antioxidants, 2022):

Assays:
mushroom tyrosinase [1] = biological target: T1, mushroom tyrosinase (Agaricus bisporus, UniProt C7FF04); assay: Mushroom tyrosinase inhibition assay; type: biochemical; details: L-tyrosine as substrate
T1 construct: purchased Sigma-Aldrich
Description: Mushroom tyrosinase inhibitory activity was determined as described previously, with minor modifications. L-Tyrosine was used as a substrate to determine enzyme activities. […] These dose-dependent inhibition experiments were carried out three times using three to five different concentrations of test compounds to determine IC50 values. Log–linear curves and their equations were derived from the observed percentages of inhibition.

[2] = test system: B16F10 murine melanoma cells; assay: Extracellular melanin content (melanin release into medium) in α-MSH/IBMX-stimulated cells; type: cell-based
Description: The anti-melanogenic activities of 1a and 1b were determined using a standard melanin content assay, with minor changes. Briefly, B16F10 cells were seeded in the wells of a 6-well plate at a density of 1 × 10^5 cells/well, and allowed to adhere to well bottoms over 24 h under the conditions used for cell culture (Section 2.3.5). […] Absorbances of culture media at 405 nm were used to determine extracellular melanin contents.

[3] = test system: B16F10 murine melanoma cells; assay: Intracellular melanin content in α-MSH/IBMX-stimulated cells; type: cell-based
Description: The cultured cells were rinsed with PBS twice and pellets were dissolved in 200 µL of 1N-NaOH solution containing 10% DMSO for 1 h at 60 °C. Cell lysates were then transferred to a 96-well plate, and the melanin absorbances were measured in aqueous DMSO at 405 nm using a microplate reader (VersaMax^TM, Molecular Devices, Sunnyvale, CA, USA).

[4] = test system: tyrosinase glycosylation in B16F10 cells; assay: Western blot of glycosylated and non-glycosylated tyrosinase; type: cell-based, murine; details: 2, 5, 10, 20 µM, 48 h; cytosolic fraction
Description: Five different concentrations of 1b (0, 2, 5, 10, and 20 µM) were exposed to B16F10 cells for 48 h, and the cells were washed with cold PBS two times, harvested, lysed, and centrifuged at 4 °C (12,000 rpm for 10 min). Cell pellets were suspended in 10 mM Tris (pH 8.0) containing 1.5 mM MgCl2, 1 mM DTT, 0.1% NP-40, and protease inhibitors (GenDEPOT), incubated on ice for 15 min, and centrifuged at 12,000× g for 15 min at 4 °C. Supernatants (cytosolic fractions) and pellets were resuspended in 10 mM Tris (pH 8.0) containing 50 mM KCl, 100 mM NaCl, and protease inhibitor, incubated on ice for 30 min, and centrifuged at 12,000× g for 15 min at 4 °C. The resultant supernatants were nuclear fractions. The protein concentrations were determined by a Bicinchoninic Acid (BCA)™ Assay Kit (Pierce, Rockford, IL, USA). The lysed protein samples were mixed in loading buffer (0.2% bromophenol blue, 12.5 mM Tris-HCl, pH 6.8, 10% 2-mercaptoethanol, and 4% SDS) at a volume ratio of 1:4, and boiled for 10 min. […] Quantification of Western blot data were analyzed by CS Analyzer 3.2 (Densitograph) image software (http://www.attokorea.co.kr, admitted on 21 May 2022).

[5] = test system: TRP-1, TRP-2, and tyrosinase mRNA in B16F10 cells; assay: qRT-PCR of melanogenesis-related genes; type: cell-based, murine; details: 24 h; GAPDH internal control; versus untreated controls
Description: Total RNAs from cells were extracted using the RiboEx Total RNA solution (GeneAll Biotechnology, Seoul, Korea). Cells in 6-well plates (0.5 mL, 1 × 10^5 cells per well) were transferred to tubes, to which chloroform (0.1 mL) was added, and shaken vigorously for 30 s. Aqueous phases were transferred to fresh tubes, and an equal volume of isopropanol was added. Samples were then incubated for 15 min at 4 °C and centrifuged at 12,000× g for 15 min at 4 °C. After discarding the supernatants, RNA pellets were washed once with 0.5 mL of 75% ethanol, vortexed briefly, and centrifuged at 7500× g for 5 min at 4 °C. Pellets were dried for 10–15 min and dissolved in diethyl pyrocarbonate (DEPC)-treated water. Complementary DNA (cDNA) was synthesized from the total RNA (2 µg) using SuPrime Script RT Premix with random hexamer cDNA Synthesis Kit (GeNet Bio, Daejeon, Korea), in accordance with the manufacturers’ instructions. Quantitative qRT-PCR amplification was performed using SensiFAST^TM SYBR® No-ROX dye (Bioline, London, UK) on the CFX Connect System (Bio-Rad Laboratories, Hercules, CA, USA). The primers specific to TRP-1, TRP-2, tyrosinase, or GAPDH were purchased from Bioneer Inc. (Daejeon, Korea). Relative gene expressions were assessed using GAPDH as the internal control.

[6] = ABTS radical scavenging activity assay; details: 100 µM, 2 min in the dark
Description: At 734 nm, optical densities of the solutions were measured using a microplate reader (VersaMax^TM, Molecular Devices, Sunnyvale, CA, USA). The ABTS radical scavenging capacities of the 16 2-arylbenzothiazole derivatives were compared with trolox. All experiments were performed independently in triplicate.

mushroom tyrosinase [7] = biological target: T1, mushroom tyrosinase; assay: Mushroom tyrosinase inhibition assay; type: biochemical; details: L-DOPA as substrate

T1 sequence (C7FF04 1-392 limits assumed): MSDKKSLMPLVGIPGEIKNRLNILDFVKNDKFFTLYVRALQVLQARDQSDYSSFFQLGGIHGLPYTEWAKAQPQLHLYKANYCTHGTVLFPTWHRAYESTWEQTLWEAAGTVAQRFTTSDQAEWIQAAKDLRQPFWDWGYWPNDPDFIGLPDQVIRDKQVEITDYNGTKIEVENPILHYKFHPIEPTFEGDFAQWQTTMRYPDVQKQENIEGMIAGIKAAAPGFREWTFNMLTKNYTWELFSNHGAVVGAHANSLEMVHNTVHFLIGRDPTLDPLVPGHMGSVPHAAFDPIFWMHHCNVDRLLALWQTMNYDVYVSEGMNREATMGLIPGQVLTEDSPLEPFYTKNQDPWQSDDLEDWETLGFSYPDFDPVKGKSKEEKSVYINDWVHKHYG

With `Oc1ccc(-c2nc3cc(C(F)(F)F)ccc3s2)c(O)c1` [Compound 1b, 4-(5-(Trifluoromethyl)benzo[d]thiazol-2-yl)benzene-1,3-diol] as the compound, how does the IC50 (mushroom tyrosinase [1]) read?
The IC50 was 0.2 ± 0.01 µM.

What about the “potency relative to kojic acid (fold more potent)” value (mushroom tyrosinase [1]; IC50 versus kojic acid) of the same compound?
Its value is 55 fold.

What about the “increase of anti-tyrosinase activity relative to 1a” value (mushroom tyrosinase [1]; versus 1a) of the same compound?
Its value is 240 fold.

What about the melanin release ([2]; 20 µM) of the same compound?
The melanin release was “reduced melanin release to control levels”.

And the “effect on melanin content in media” value ([2]; 5, 10, 20 µM, α-MSH (1 µM) + IBMX (200 µM), 48 h)?
The value was “concentration-dependently and significantly reduced melanin content increases”.

And the “inhibition of α-MSH/IBMX-induced intracellular melanin increase” value ([3]; 10 µM, compared with kojic acid 20 µM)?
Its value is “more potently inhibited α-MSH/IBMX-induced increases in melanin than kojic acid at 20 µM”.

What about the “intracellular melanin content, lower than untreated control group” value ([3]; 20 µM, α-MSH/IBMX co-treated cells) of the same compound?
The value was 20%.

And the “effect on intracellular melanin content” value ([3]; 5, 10, 20 µM, α-MSH + IBMX, 48 h)?
Its value is “significantly and concentration-dependently reduced intracellular melanin increases”.

And the “ratio of glycosylated tyrosinase to total tyrosinase” value [4]?
Its value is “significantly reduced”.

And the “mRNA expression levels of the three MITF target genes (TRP-1, TRP-2, tyrosinase)” value [5]?
Its value is “significantly and concentration-dependently suppressed”.

What about the “ABTS radical scavenging activity (in words)” value [6] of the same compound?
Its value is “potently scavenged the ABTS radical”.

What about the “ABTS free radical scavenged (%)” value ([6]; 734 nm) of the same compound?
The value was 75%.

And the IC50 (mushroom tyrosinase [7])?
Its IC50 is 1.7 ± 0.11 µM.
